Publication PMC4919188 (Nature, 2016)

Tests used:
P0 mouse TG neurons = assay: Ratiometric calcium imaging, P0 mouse TG neurons; format: cell-based; conditions: ICA-121431 500 nM, SGTx1 500 nM; P0 mouse neurons (Extended Data Fig. 1d)
[1] = test system: high-threshold colonic afferents from healthy mice; assay: Ex vivo gut-nerve recording, high-threshold colonic afferents, healthy mice; set-up: species or system mouse; conditions: ICA-121432 with or without Hm1a (100 nM), afferents/total
[2] = test system: high-threshold colonic afferents from CVH mice; assay: Ex vivo gut-nerve recording, high-threshold colonic afferents, CVH mice; set-up: species or system mouse
[3] = test system: nerve-injury evoked mechanical allodynia; conditions: cited from earlier work
[4] = test system: mouse paw mechanical response threshold; assay: Von Frey test, mechanical sensitivity; format: in vivo; conditions: native Hm1b 500 nM intraplantar, n = 5

O=C(Nc1ccc(S(=O)(=O)Nc2nccs2)cc1)C(c1ccccc1)c1ccccc1 [ICA-121431]
block of SGTx1-evoked calcium responses (P0 mouse TG neurons): only partially blocked
afferents unaltered by ICA [1]: 5/10
sensitizing effects of Hm1a ([2]; ICA-121431 with Hm1a): blocked the sensitizing effects of Hm1a
afferents unaltered by ICA ([2]; ICA-121432 with or without Hm1a, afferents/total): 3/10

NC(=O)c1cn(Cc2c(F)cccc2F)nn1 [rufinamide]
effect on nerve-injury evoked mechanical allodynia [3]: diminish nerve-injury evoked mechanical allodynia

Hm1b: inhibitor cysteine knot (ICK) peptide from venom of the tarantula Heteroscodra maculata
mechanical sensitization compared with Hm1a [4]: Equivalent mechanical sensitization
